Laboratory results taken from patent publication US9902752B2, “5-fluorouracil derivatives” (B. Braun Melsungen AG, priority 2012, dated 2018).
Read-outs that look alike come from different tables or passages of the source. Blank lines part the entries; values can stand above or below the molecule they belong to. {19c} = modification given as compound (19c) in the publication; {25} = modification given as compound (25) in the publication; {Cy3} = Cy-3 fluorescent dye

How the values were obtained:
[1] = Free diffusion times of oligonucleotides (without bilayer); type: physicochemical; conditions: diluted 50 nM oligomer solution
Procedure: From the fluorescence signals of single molecules which pass the excitation volume, the diffusion constants can be calculated. In order to determine the diffusion times of the fluorescent oligonucleotides within and near the bilayer, they were measured at five different positions above, below and within the layer. At each point five measurements for 30 s, each, were taken. In summary, each measuring protocol was as follows: (i) a reference scan of the stable (empty) bilayer; (ii) addition of the sample with 25 min of incubation, followed by a scan series; (iii) additional scan series, each after a 1., 2., and 3. perfusion (60 s, each).
The diffusion times (μs) of 41 and 42 were measured, both without and in the presence of an artificial bilayer. For the determination of the free diffusion times the corresponding oligomer solution (50 nM) was diluted so that in the confocal measuring volume (˜10^−15 l) only one fluorescent molecule was present. Each measurement was performed ten-fold for 30 s, each. In order to determine the diffusion times of the lipophilized oligonucleotides (41, 42) in the presence of a bilayer five measuring positions above, beneath and in the bilayer were chosen. This was necessary because the bilayer is floating within certain limits, which makes it difficult to target it most exactly (FIG. 5, measuring points 1-5). […]

[2] = Diffusion times of oligonucleotides in the presence of a lipid bilayer; type: physicochemical
Procedure: The incorporation of the oligonucleotides into artificial bilayers was performed at a lipid mixture of 1-palmitoyl-2-oleyl-sn-glycero-3-phosphoethanolamine (POPE) and 1-palmitoyl-2-oleyl-sn-glycero-3-phosphocholine (POPC) (8:2, w/w, 100 mg/ml of n-decane). For the preparation of the horizontal bilayers, planar slides (Ionovation GmbH, D-Osnabrück) were used. These slides contain chambers for cis- and trans compartments as well as electrode access (see FIG. 1). The main body of the slides contains of PTFE foil (thickness, 25 μm) with an aperture of ˜100 μm diameter. This foil separates the chamber into the cis- and trans compartments which are only connected by the aperture. After filling of the chamber with buffer (250 mM KCl, 10 mM MOPS/TRIS, pH 7), the cis- and trans compartments were linked with Ag/AgCl electrodes—embedded in agarose/3 M KCl). Then, a soln. of the POPC/POPE lipid mixture (0.2 μl) is applied onto the aperture of the PTFE foil using a Hamilton syringe (Hamilton, CH-Bonaduz). […] The formation of a stable bilayer was monitored both, optically using a laser scanning microscope (Insight Cell 3D, Evotec Technologies GmbH, D-Hamburg) as well as electrically by capacity measurements. […] The optical pictures of fluorescence fluctuations were obtained with a confocal laser scanning microscope (Insight Cell 3D, Evotec Technologies GmbH, D-Hamburg), equipped with a He—Ne laser (543 nm), a 40× water-immersion objective (UApo 340, 40×, NA=1.15, Olympus, 3-Tokyo), and an Avalanche photodiode detector (SPCM-AQR-13-FC, Perkin-Elmer Optoelectronics, Fremont, USA). Fluorescence irradiation was obtained with a laser power of 200±5 μW. […]
From the fluorescence signals of single molecules which pass the excitation volume, the diffusion constants can be calculated. In order to determine the diffusion times of the fluorescent oligonucleotides within and near the bilayer, they were measured at five different positions above, below and within the layer. […]
The diffusion times (μs) of 41 and 42 were measured, both without and in the presence of an artificial bilayer. […]

[3] = Bilayer insertion of lipophilic oligonucleotides (fluorescence scans); type: physicochemical; conditions: for incorporation into the artificial bilayer: brightness of the layers, 25 min incubation; for retention in the bilayer after perfusions: perfusions of 60 s each
Procedure: The incorporation of the oligonucleotides into artificial bilayers was performed at a lipid mixture of 1-palmitoyl-2-oleyl-sn-glycero-3-phosphoethanolamine (POPE) and 1-palmitoyl-2-oleyl-sn-glycero-3-phosphocholine (POPC) (8:2, w/w, 100 mg/ml of n-decane). For the preparation of the horizontal bilayers, planar slides (Ionovation GmbH, D-Osnabrück) were used. These slides contain chambers for cis- and trans compartments as well as electrode access (see FIG. 1). The main body of the slides contains of PTFE foil (thickness, 25 μm) with an aperture of ˜100 μm diameter. This foil separates the chamber into the cis- and trans compartments which are only connected by the aperture. After filling of the chamber with buffer (250 mM KCl, 10 mM MOPS/TRIS, pH 7), the cis- and trans compartments were linked with Ag/AgCl electrodes—embedded in agarose/3 M KCl). Then, a soln. of the POPC/POPE lipid mixture (0.2 μl) is applied onto the aperture of the PTFE foil using a Hamilton syringe (Hamilton, CH-Bonaduz). A small Faraday cage shields the bilayer and the electrodes from HF-electrical noise. Next, a bilayer is made-up automatically using a perfusion system (Bilayer Explorer V01, Ionovation GmbH, D-Osnabrück). The formation of a stable bilayer was monitored both, optically using a laser scanning microscope (Insight Cell 3D, Evotec Technologies GmbH, D-Hamburg) as well as electrically by capacity measurements. When a stable bilayer had been obtained (capacity, […]), the corresponding oligonucleotide soln. (50 nM, 4 μl) was injected into the cis compartment of the chip. During an incubation time of 25 min the intactness of the bilayer was electro-physiologically controlled using a headstage EPC 10 USB with a patch clamp amplifier (software: Patchmaster, HEKA Elektronik Dr. Schulze GmbH, D-Lambrecht). The optical pictures of fluorescence fluctuations were obtained with a confocal laser scanning microscope (Insight Cell 3D, Evotec Technologies GmbH, D-Hamburg), equipped with a He—Ne laser (543 nm), a 40× water-immersion objective (UApo 340, 40×, NA=1.15, Olympus, 3-Tokyo), and an Avalanche photodiode detector (SPCM-AQR-13-FC, Perkin-Elmer Optoelectronics, Fremont, USA). Fluorescence irradiation was obtained with a laser power of 200±5 μW. 2D and 3D scans were performed by scanning the confocal spot in XY direction with a rotating beam scanner and movement of the objective in Z direction. The movement in both directions was piezo controlled which allows a nano-meter precise positioning. For the 2D pictures (Z-scans, FIGS. 2 and 3) the confocal plane was moved in 100 nm steps. […]

[4] = Lipophilicity as chromatographic mobility, RP-18 HPLC retention time; type: physicochemical; conditions: MeCN/0.1 M Et3NH+OAc− (35:65, v/v, pH 7.0)
Procedure: RP-18 HPLC was carried out on a 250×4 mm RP-18 column (Merck, Germany) on a Merck-Hitachi HPLC apparatus with one pump (Model 655A-12) connected with a proportioning valve, a variable wavelength monitor (Model 655 A), a controller (Model L-5000), and an integrator (Model D-2000). Solvent: MeCN/0.1 M Et3NH^+OAc^− (35:65, v/v, pH 7.0).
The lipophilicity of various 5-fluorouridine derivatives has been studied since the lipophilicity has inter alia an influence on the incorporation into oligo(2′-deoxynucleotides). The lipophilicity of the novel hydrophobic nucleoside derivatives has been studied in different by two ways: (i) log P values of the compounds were calculated (Table 4) and compared with those of the unmodified nucleoside 1a, (ii) the chromatographic mobilities of the compounds were measured in terms of retention times (tR in min) by RP-18 HPLC.

[5] = pKBH+ value of the nucleoside; type: physicochemical
[6] = 1N aq. HCl/MeCN, 1:1 (v/v); cited from earlier work
[7] = test system: HT-29 (human colon carcinoma) cell line; assay: Viability/survival of HT-29 cells (PrestoBlue); type: cell-based; conditions: HT-29, 10-80 μM, 24, 48 or 72 h; vs comparative compounds, 5-fluorouridine and 5-fluorouracil
Procedure: In vitro experiments were performed using HT-29 (human colon carcinoma) cell line (DSMZ, GmbH, Braunschweig, Germany). The cells were cultured in 90% RPMI 1640 supplemented with 10% fetal bovine serum (FBS), 100 U/ml penicillin, 0.1 mg/ml streptomycin. Cells were maintained at 37° C. in a humidified atmosphere of 5% CO2 and 95% air; the medium was changed every 48 h.
1×10^4 human HT-29 in 100 μl medium/well were seeded in 96-well plates (BD Falcon™, Becton Dickinson GmbH, Heidelberg, Germany). After 24 h, the medium was changed and different concentrations of 5-fluorouracil, 5-fluorouridin and 5-fluorouridin derivative molecules (10, 20, 40 or 80 μM) were tested. After 24, 48 or 72 h incubation, viability/survival was measured using PrestoBlue™ reagent (Invitrogen-Life Technologies GmbH, Darmstadt, Germany). PrestoBlue™ reagent is more sensible than alamarBlue®, which is a redox indicator of enzyme activity widely used in whole organism screening for viability/cytotoxicity (1-6). PrestoBlue™ was directly added to the cells into the culture medium at a final concentration of 10%. Thereafter the plates were returned to the incubator. 30 min, 1 h, 2 h, 3 h and 4 h after addition of PrestoBlue™ the optical density (OD) was measured at 570 nm and 600 nm (as reference) with a SUNRISE ELISA-reader (Tecan, Salzburg, Austria). […]

[8] = cited from earlier work
[9] = measuring point 3, after 1. perfusion

- RP-18 HPLC tR [4]: 1 min
- pKBH+ [5]: 8.0±0.1
Molecule: O=c1[nH]c(=O)n([C@@H]2O[C@H](CO)[C@@H](O)[C@H]2O)cc1F [Compound 1a, 5-Fluorouridine, reference compound]

- melting point: 196 to 197 °C
Molecule: CC1(C)O[C@@H]2[C@H](O1)[C@@H](CO)O[C@H]2n1cc(F)c(=O)[nH]c1=O [Compound 19a, 5-Fluoro-1-((3aR,4R,6R,6aR)-6-(hydroxymethyl)-2,2-dimethyltetrahydrofuro[3,4-d][1,3]dioxol-4-yl)pyrimidine-2,4(1H,3H)-dione]

- RP-18 HPLC tR [4]: >600 min
Molecule: CCCCCCCCCC1(CCCCCCCCC)O[C@@H]2[C@H](O1)[C@@H](CO)O[C@H]2n1cc(F)c(=O)[nH]c1=O [Compound 19c, 5-Fluoro-1-((3aR,4R,6R,6aR)-6-(hydroxymethyl)-2,2-dinonyltetrahydrofuro[3,4-d][1,3]dioxol-4-yl)pyrimidine-2,4(1H,3H)-dione]

Continued, molecule first:

Molecule: 5′-d[(19c)-(Cy-3)-TAG GTC AAT ACT]. (DNA TAGGTCAATACT; DNA, 5' {19c}-{Cy3}, backbone not given here) [Oligomer 42]
- Free diffusion time [1]: 390.39 ± 249.05 μs
- Diffusion time in the presence of a bilayer [2, 9]: 75952 ± 8201, after 1 perfusion μs
- Diffusion time in the presence of a bilayer ([2]; measuring point 3, after 3. perfusion): 19891 ± 3266, after 3. perfusion μs
- incorporation into the artificial bilayer [3]: better inserted
- retention in the bilayer after perfusions [3]: do not lead to a significant removal

Molecule: 5′-d[(25)-(Cy-3)-TAG GTC AAT ACT] (DNA TAGGTCAATACT; DNA, 5' {25}-{Cy3}, backbone not given here) [Oligomer 41]
- Free diffusion time [1]: 279.67 ± 141.08 μs
- Diffusion time in the presence of a bilayer [2, 9]: 33547 ± 16751, after 1. perfusion μs
- incorporation into the artificial bilayer [3]: successfully incorporated
- retention in the bilayer after perfusions [3]: brightness of the layer decreases after two perfusions

Molecule: CCCC1(CCC)OC2[C@@H](O1)[C@@H](CO)O[C@H]2n1cc(F)c(=O)[nH]c1=O (some centres unmarked) [Compound 19b, 5-Fluoro-2,3′-O-(1-propylbutylidene)uridine]
- acidic stability at the ketal group, T [6]: 130 min

Molecule: CC(C)=CCC/C(C)=C/CC/C(C)=C/Cn1c(=O)c(F)cn([C@@H]2O[C@H](CO)[C@@H](O)[C@H]2O)c1=O [Compound 23, 1-((2R,3R,4S,5R)-3,4-dihydroxy-5-(hydroxymethyl)tetrahydrofuran-2-yl)-5-fluoro-3-((2E,6E)-3,7,11-trimethyldodeca-2,6,10-trien-1-yl)pyrimidine-2,4(1H,3H)-dione]
- RP-18 HPLC tR [4]: 27 min

Molecule: CC(C)=CCC/C(C)=C/CC/C(C)=C/Cn1c(=O)c(F)cn([C@@H]2O[C@H](CO)[C@H]3OC(C)(C)O[C@H]32)c1=O [Compound 24, 5-Fluoro-1-((3aR,4R,6R,6aR)-6-(hydroxymethyl)-2,2-dimethyltetrahydrofuro-[3,4-d][1,3]dioxol-4-yl)-3-((2E,6E)-3,7,11-trimethyldodeca-2,6,10-trien-1-yl)pyrimidine-2,4(1H,3H)-dione]
- RP-18 HPLC tR [4]: 24 min

Molecule: CCCC1(CCC)OC2C(O1)[C@@H](CO)O[C@H]2n1cc(F)c(=O)n(C/C=C(\C)CC/C=C(\C)CCC=C(C)C)c1=O (stereo partly drawn) [Compound 25, 5-Fluoro-1-((3aR,4R,6R,6aR)-6-(hydroxymethyl)-2,2-dipropyitetrahydrofuro-[3,4-d][1,3]dioxol-4-yl)-3-((2E,6E)-3,7,11-trimethyldodeca-2,6,10-trien-1-yl)pyrimidine-2,4(1H,3H)-dione]
- RP-18 HPLC tR [4]: 87 min

Molecule: CC(C)=CCC/C(C)=C/CC/C(C)=C/Cn1c(=O)c(F)cn([C@@H]2O[C@H](CO)C3OC4(CCCCCCCCCCC4)OC32)c1=O (some centres unmarked) [Compound 31a, 2′,3′-O-Cyclododecane-1,1-diyl-5-fluoro-3-[(2E,6E)-3,7,11-trimethyldodeca-2,6,10-trien-1-yl]uridine]
- activity against carcinoma cells [7]: significant higher activity

Molecule: O=c1[nH]cc(F)c(=O)[nH]1 [fluorouracil, 5-fluorouracil]
- half life ([8]; with uracil (UFT, DPD inhibition)): 10 to 14 h
- half life ([8]; without uracil): 0.167 to 0.5 h
